According to patent US5023353A, “Deoxoartemisinin: new compound and composition for the treatment of malaria” (priority 1990, dated 1991):
≈ marks a conversion by molar mass, not a printed value. Like-named read-outs stand apart in the source and are kept apart here.

Legend:
[1] = system: Plasmodium falciparum D-6; experiment: In vitro antimalarial activity, semiautomated microdilution (hypoxanthine incorporation), D-6 clone; type: cell-based; conditions: for IC50: Plasmodium falciparum, read-out: In Vitro Antimalarial Activity IC50, D-6
Protocol: (§1) The intrinsic antimalarial activities of deoxoartemisinin and various control drugs were quantitatively assessed by using modifications of the semiautomated microdilution method of Desjardins. Deoxoartemisinin was dissolved in DMSO and subsequently diluted in culture medium with 10% plasma. Equimolar starting concentrations were predetermined to generate well-defined concentration curves over a 64-fold range of dilutions. Microtiter plates prepared with serial dilutions of drug and parasite suspensions (at 0.5% parasitemia and 1.5% hematocrit) were incubated at 37° C. in an air-tight plexiglass box, which was flushed with 5% oxygen, 5% carbon dioxide, and 90% nitrogen. After 24 hours of incubation, cultures were labeled with tritiated hypoxanthine and incubated for an additional 18-20 hours prior to harvesting particulate matter on fiber glass strips. Hypoxanthine incorporation in each well was determined by scintillation spectrophotometry and served as an index of specific parasite growth rates. Computer-generated concentration-response curves were analyzed by non-linear regression, and 50% inhibitory concentrations were calculated for each drug. The antimalarial tests were conducted using cultures obtained from the Malaria Laboratory, Division of Experimental Therapeutics, WRAIR/WRAMC, Washington, D.C. The W-2 culture utilized in the testing of Example II was of Indochina origin, chloroquine-resistant and mefloquine-sensitive. The other culture D-6, used in the testing of Example II and reported in Table I, is of Sierra Leone origin, chloroquine-sensitive and mefloquine-resistant.
(§2) Set out in Table I are the comparative results obtained from in vitro testing the activity of the inventive compound, known antimalarial compounds, artemisinin, and another derivative of artemisinin.

[2] = system: Plasmodium falciparum W-2; experiment: In vitro antimalarial activity, semiautomated microdilution (hypoxanthine incorporation), W-2 clone; type: cell-based; conditions: for IC50: Plasmodium falciparum, read-out: In Vitro Antimalarial Activity IC50, W-2
Protocol: as §1, §2

[3] = Solubility and lipophilicity
Plasmodium falciparum = experiment: Antimalarial screening tests in vitro; type: cell-based; conditions: nonperoxy compounds
Protocol: as §1, with “The W-2 culture utilized in the testing of Example II was of Indochina origin, chloroquine-resistant and mefloquine-sensitive. The other culture D-6, used in the testing of Example II and reported in Table I, is of Sierra Leone origin, chloroquine-sensitive and mefloquine-resistant.” left out

[4] = background statement; cited from earlier work
[5] = in vivo; cited from earlier work
[6] = D-6 clone, Sierra Leone origin, chloroquine-sensitive and mefloquine-resistant
[7] = W-2 clone, Indochina origin, chloroquine-resistant and mefloquine-sensitive

Row | IC50 [1, 6] [ng/mL] | IC50 [2, 7] [ng/mL] | Structure (SMILES) | IC50 [1] [ng/mL] | IC50 [2] [ng/mL] | further results
1 | 7.3 (≈ 0.0193 µM) | 0.74 (≈ 0.00196 µM) | OC(c1cc(C(F)(F)F)nc2c(C(F)(F)F)cccc12)C1CCCCN1 (centres unmarked) [Mefloquine] |  |  | 
2 | 0.05 (≈ 0.000201 µM) | 39.3 (≈ 0.158 µM) | CCc1nc(N)nc(N)c1-c1ccc(Cl)cc1 [Pyrimethamine] |  |  | 
3 | 0.58 (≈ 0.00216 µM) | 0.15 (≈ 0.000559 µM) | CC1CCC2C(C)COC3OC4(C)CCC1C32OO4 (centres unmarked) [Deoxoartemisinin, deoxoartemisinin] |  |  | antimalarial activity in vitro as compared to artemisinin, chloroquine-sensitive malaria ([1]; against chloroquine-sensitive malaria, relative to artemisinin): approximately eight; antimalarial activity in vitro as compared to artemisinin, chloroquine-resistant malaria ([2]; against chloroquine-resistant malaria, relative to artemisinin): four; solubility in organic solvents [3]: soluble in chloroform, diethylether, acetonitrile, cyclohexane and hexane
4 |  |  | CN(C)[C@@H]1C(=O)C(C(N)=O)=C(O)[C@@]2(O)C(=O)C3=C(O)c4c(O)cccc4[C@@](C)(O)[C@H]3C[C@@H]12 [Tetracycline] | 7230 (≈ 16.3 µM) | 10200 (≈ 23 µM) | 
5 | 16.4 (≈ 0.0527 µM) | 14300 (≈ 46.2 µM) | COc1ncnc(NS(=O)(=O)c2ccc(N)cc2)c1OC [Sulfadoxine] |  |  | 
6 | 762 (≈ 2.86 µM) |  | C[C@@H]1CC[C@H]2[C@@H](C)C(=O)O[C@@H]3O[C@@]4(C)CC[C@@H]1[C@]32O4 [Deoxyartemisinin, deoxyartemisinin] |  |  | activity in the antimalarial screening tests (Plasmodium falciparum): failed to exhibit activity
7 |  |  | CCN(CC)CCCC(C)Nc1ccnc2cc(Cl)ccc12 (centres unmarked) [Chloroquine] | 2.69 (≈ 0.00841 µM) | 55.7 (≈ 0.174 µM) | 
8 |  |  | C=C[C@H]1C[N@@]2CC[C@H]1C[C@H]2[C@H](O)c1ccnc2ccc(OC)cc12 [Quinine] | 10.8 (≈ 0.0333 µM) | 59.7 (≈ 0.184 µM) | 

Row | Structure (SMILES) | IC50 [1, 6] [ng/mL] | IC50 [2, 7] [ng/mL] | IC50 [1] [ng/mL] | IC50 [2] [ng/mL] | further results
9 | C[C@@H]1CC[C@H]2[C@@H](C)C(=O)O[C@@H]3O[C@@]4(C)CC[C@@H]1[C@]32OO4 [Artemisinin, artemisinin] | 2.33 (≈ 0.00825 µM) | 1.21 (≈ 0.00429 µM) |  |  | solubility in water or oils [4]: only sparingly soluble in either water or oils; side effects [5]: No side effects
